System: mouse breast cancer 4T1 cells xenografts
Assay: In vivo validation of Targeted Osmotic Lysis (TOL) in a breast cancer mouse model
Parameters: species or system BALBc mice
Conditions: TOL: 7 mg/kg digoxin s.c. five times at 1 hr intervals plus pulsed magnetic fields from toroid device for 30 min, day 0 and day 1; versus control groups; FIG. 9
Procedure: FIG. 9 depicts in vivo validation of the therapeutic efficacy of pulsed magnetic fields inducing osmotic lysis in a breast cancer mouse model. Four groups of female, immune competent BALBc mice (n=8) with xenografts (0.7-1.2 cm diameter lower back) were established after injection of 500K highly malignant mouse breast cancer 4T1 cells in 7 mg/kg digoxin or saline (s.c. back of neck) five times at 1 hr intervals. This protocol establishes steady-state pharmacokinetics in even poorly vascularized tissues. The mice were exposed to the pulsed magnetic fields generated by a toroid device, for 30 min starting 15 min after the last injection. This treatment was administered on day 0 (first day of treatment), and on day 1. Mice were monitored for tumor growth and were sacrificed when they met the NIH criteria for humane endpoint euthanasia.

C[C@H]1O[C@@H](O[C@H]2[C@@H](O)C[C@H](O[C@H]3[C@@H](O)C[C@H](O[C@H]4CC[C@@]5(C)[C@H](CC[C@@H]6[C@@H]5C[C@@H](O)[C@]5(C)[C@@H](C7=CC(=O)OC7)CC[C@]65O)C4)O[C@@H]3C)O[C@@H]2C)C[C@H](O)[C@@H]1O [digoxin]
time until mice reached humane endpoint euthanasia criteria: significantly longer than mice in the control groups

Reference: patent US20220072324A1, “METHOD AND SYSTEM FOR APPLYING PULSED ELECTRIC FIELDS WITH HIGH […] MAGNETIC CORES” (Board of Supervisors of Louisiana State University and …, priority 2018, published 2022)
